Data set [1] is described as follows: Example 3: clinical study, safety (docetaxel dose reduction, neutropenia rate, G-CSF use), Arm DN vs Arm D. Type of data set: in vivo, human (NSCLC patients). Here is the method: The investor applied the optimum plinabulin and docetaxel combination treatment schedule derived from MV522 animal studies in NSCLC patients. Patients received therapy on Day 1 and Day 8 in 3-week cycles. Therapy on Day 1 consisted of 75 mg/m^2 docetaxel administered via intravenous infusion (IV) over 1 hour, followed 2 hours later (from the time the docetaxel infusion begins) by 30 mg/m^2 plinabulin administered via intravenous infusion (IV) over 30 minutes. Therapy on Day 8 consisted of 20 mg/m^2 or 30 mg/m^2 plinabulin administered via intravenous infusion (IV) over 30 minutes.
This was an open-label study in patients with advanced NSCLC that had progressed after treatment with at least 1 chemotherapy regimen. Patients were randomized to receive either docetaxel plus plinabulin (DN) or docetaxel alone (75 mg/m^2) (D). 2 dosing cohorts were investigated: • 1) 30 mg/m^2 dosing cohort: Approximately 110 patients were to be randomized (1:1) to receive either docetaxel plus plinabulin at 30 mg/m^2 (DN 30 mg/m^2 arm) or docetaxel alone (D arm); • 2) 20 mg/m^2 dosing cohort: Approximately 57 patients were to be randomized (2:1) to receive either docetaxel plus plinabulin at 20 mg/m^2 (DN 20 mg/m^2 arm) or docetaxel (D arm) alone.
Patients received therapy on Day 1 and Day 8 in 3-week cycles.
Therapy on Day 1 consisted of 75 mg/m^2 docetaxel administered via intravenous infusion (IV) over 1 hour, followed 2 hours later (from the time the docetaxel infusion began) by placebo (Arm D) or 30 mg/m^2 or 20 mg/m^2 plinabulin (Arm DN) DN administered via intravenous infusion (IV) over 30 minutes. Oral dexamethasone (16 mg) was given the day prior to, the day of and the day following docetaxel infusion (Day 1). Therapy on Day 8 consisted of placebo (Arm D) or 30 mg/m^2 or 20 mg/m^2 plinabulin (Arm DN) administered via intravenous infusion (IV) over 30 minutes.
In patients experiencing drug related Grade >2 treatment emergent adverse events (except alopecia, anorexia, and fatigue) according to the CTCAE (v3.0) treatment may be delayed until the adverse event has recovered to <Grade 1.
The initial dose of plinabulin was 30 mg/m^2 or 20 mg/m^2. Dose adjustments depended on observed adverse events. Volume of administration varied based on assigned dose and patient body surface area. The clinical formulation were supplied as a concentrated solution in 40% Solutol® HS-15/60% propylene glycol in amber vials containing 80 mg of drug in 20 mL (4 mg/mL) and were stored at room temperature. Each vial was designated for single use. The correct volume of drug (at a concentration of 4 mg/mL in the vial) was diluted in dextrose 5% in water (D5W) at a dilution of 1:20 and administered IV peripherally or centrally. Infusion time may be increased as clinically indicated at the direction of the Sponsor. Plinabulin and placebo must be protected from light at all times including storage, dilution and administration. Plinabulin and placebo should be administered within 6 hours of dilution.
The initial dose of docetaxel was 75 mg/m^2. Dose adjustments depended on observed adverse events.
Comparisons were made of efficacy endpoints between Arm D and Arm DN. The primary efficacy endpoint is overall survival. Secondary endpoints include response rate, duration of response, quality of life, neutropenia rate and G-CSF usage. […]
All patients were evaluated for safety analysis if they received at least one dose of study drug. […]

For data set [2] the following is noted: mouse, in vivo. The protocol: Female nude mice (Hsd: Athymic Nude-Foxn1^nu) between 5 and 6 weeks of age weighing approximately 20 grams were obtained from Harlan, Inc. (Madison, Wis.). MV522 is a conventional human NSC metastatic lung tumor cell line (U.S. Pat. No. 7,700,615 or 7,629,380). Animals were injected subcutaneously (SC) with approximately 1×10^7 MV522 cells harvested from tissue culture. When tumors grew to approximately 105 cubic millimeters (mm^3) in size (3 days following implantation), animals were pair-matched by tumor size into treatment and control groups; each treatment group contained eight mice. Animals were ear-tagged and followed individually throughout the experiment.
Initial doses were administered on Day 1 following pair-matching. The experiment was carried out as a tumor growth inhibition (TGI) and tumor growth delay (TGD) study. Group 1 endpoint was when tumor volume reached 1.2 cm^3 (TGI) and the treated groups endpoint was when each individual animal's tumor volume reached 1.5 cm^3 (TGD). […] To serve as negative controls, NPI-2358 vehicle and docetaxel vehicle were injected IP on a 2×WKLY×3 schedule and IV on a Q2D×3 schedule, respectively. Docetaxel was administered by intravenous (IV) injection via tail vein at 15 mg/kg once every other day for three treatments (Q2D×3) or at 25 mg/kg on a Q7D×3 schedule (every 7 day for three treatment). Docetaxel and docetaxel vehicle were administered two hours prior to NPI-2358 vehicle and NPI-2358, respectively, in Groups 7-9 and 12-14. For Groups 10, 11, 15, and 16, NPI-2358 was given two hours prior to docetaxel.
Individual and group mean weights ±SD and percent weight change were recorded twice weekly until study completion beginning Day 1. Group weights on Day 42 and weight nadir values are reported.
Animals were observed twice weekly for general moribundity and daily for mortality.

The test system of the next data set is NSCLC. As to conditions: wide type NSCLC patients (stage IIIb/IV, second line), docetaxel 75 mg/m^2; cited from earlier work.

For the compound `CC(=O)O[C@@]12CO[C@@H]1C[C@H](O)[C@@]1(C)C(=O)[C@H](O)C3=C(C)[C@@H](OC(=O)[C@H](O)[C@@H](NC(=O)OC(C)(C)C)c4ccccc4)C[C@@](O)([C@@H](OC(=O)c4ccccc4)[C@H]21)C3(C)C` [Docetaxel, docetaxel], the “Patients requiring docetaxel dose reductions” value in data set [1] (20 mg/m^2 plinabulin cohort and companion D arm) worked out at 22.2%. Moreover, in data set [1] (30 mg/m^2 plinabulin cohort and matched docetaxel alone arm), the “Patients with docetaxel dose decrease from initial 75 mg/m^2” value worked out at 18.2%. Also, the Incidence of neutropenia was determined as 22.2% in data set [1] (DN 20 mg/m^2 arm vs companion D arm) and 36.4% in data set [1] (DN 30 mg/m^2 arm vs companion D arm). In addition, in data set [1] (pooled D arm (n=73)), the “Incidence of ≥Grade 3 neutropenia” value was found to be 27.4%. Further, the Animal weight loss result in data set [2] was “significant animal weight loss was observed”. Besides, in the data set on NSCLC, the OS was 8.2 months.

(Values after US10596169B2, “Cancer treatment with combination of plinabulin and taxane” (BeyondSpring Inc., priority 2013, dated 2020).)
